Source: patent US10322112B2, “Compound combinations for attenuation of bacterial virulence” (priority 2016, dated 2019)

Key:
QscR = QscR (Pseudomonas aeruginosa, UniProt G3XD77); settings: compounds at 100 mm; E. coli reporter strain JLD271/pJN105Q/pSC11-Q; 100 mm OdDHL = 100%; error ±10%
Text: Construction of pSC11-Q: A 348 bp fragment spanning the upstream region of PA1897 (¢304 to +43 relative to the PA1897 translationalstart codon) was amplified from plasmid pJL101*by using primers 5′-GAATAT GGATCC TCTCTC CGCAGA TACCTG-3′ (BamHI site underlined) SEQ ID NO:5 and 5′-GCTATT GAATTC TGAAGA TGAATA GCGCCAC-3′ (EcoRI site underlined) SEQ ID NO:6. The PCR-generated fragment was digested with EcoRI and BamHI and subsequently ligated into EcoRI/BamHI-digested pPROBE-KT to generate pPROBE-KQ2. […] CGCC-3′ (BamHI site underlined) SEQ ID NO:8. The PCR-generated fragment was digested with SalI and BamHI and subsequently ligated into SalI/BamHI-digested pSC11 to generate pSC11-Q.
E. coli reporter gene assays: Primary assays for RhlR, LasR, and QscR activity in E. coli JLD271 reporter (beta-galactosidase) strains were performed as reported by Welsh et al. 2015, with the following modifications:
For all primary and dose-response antagonism assays, the concentration of native ligand utilized was approximately equal to its EC50 value in each bacterial reporter strain. For RhlR, LasR, and QscR primary antagonism assays, synthetic ligand (100 mm) was screened against BHL (10 mm), OdDHL (2 nm), and OdDHL (15 nm), respectively. For RhlR, LasR, and QscR primary agonism assays, synthetic compound (100 mm) was screened alongside and compared to the natural ligand (900 mm BHL or 100 mm OdDHL) for the receptor. As part of the beta-galactosidase assay protocol, plates to which CPRG substrate had been added were incubated at either 25° C. (LasR assay) or 30° C. (RhlR and QscR assays) until positive control wells developed a deep red color (10 min for LasR, 30 min for RhlR, and 60 min for QscR). Dose-response reporter gene assays were performed according to these protocols by using varying concentrations of compound.

P. aeruginosa (PAO1) = experiment: Rhamnolipid assay; assay type: cell-based, Pseudomonas aeruginosa; settings: MOPS Glutamate and Glucose media, complete or iron/phosphate depleted, 17 h, 100 μM (compounds 1, 2, 3), 25 μM (compound 4), relative to DMSO
Description: A. Pyocyanin Assay Protocol. The amount of pyocyanin in P. aeruginosa culture supernatants was measured following a reported protocol (O'Loughlin et al., 2013) with modifications. A 10 mL overnight culture of P. aeruginosa PAO1 was grown for 16 h. DMSO stock solutions of test compounds (20 mM) were prepared, and 10 μL or 5 μL aliquots were added to sterile 15 mL borosilicate glass test tubes. An inoculating culture was prepared by diluting the overnight culture 1:100 into freshly prepared assay medium (see above), and 2 mL aliquots of this subculture were added to each test tube (0.5% DMSO, final). The cultures were grown for 17 h, and the final cell density measured by reading OD600. Relative pyocyanin levels were measured by first pelleting 1.5 mL of well-mixed culture at 4,000 g for 10 min, transferring 200 μL of the resulting supernatant to a clear, plastic 96-well microtiter plate, and reading absorbance at 695 nm. Media background absorbance (measured from a “no bacteria” control) was subtracted, the resulting values growth normalized by dividing by the final OD600378, and the data plotted relative to a DMSO-treated positive control. B. Rhamnolipid Assay Protocol. Rhamnolipid was quantified following a reported protocol (Koch et al., 1991) with modifications. Assay cultures were prepared and grown in an identical manner to the pyocyanin assay above. Aliquots of the final culture supernatant (1 mL) were transferred to 1 dram glass vials and extracted twice with 1 mL diethyl ether. The pooled organic fractions were evaporated to dryness, and the resulting residue reconstituted in 200 μL de-ionized water. […] After briefly cooling to room temperature, 200 μL of the resulting yellow to yellow-orange solution was transferred to a clear 96-well microtiter plate, and the absorbance at 421 nm measured. Media background absorbance (measured from a “no bacteria” control) was subtracted, the resulting values growth normalized by dividing by the final OD600, and the data plotted relative to a DMSO-treated positive control. […] The amount of elastase B in P. aeruginosa culture supernatants was measured following a reported protocol (Geske et al., 2007) with modifications. […] To quantify elastase B activity, the undigested elastin was pelleted by centrifugation of the assay plate at 1,500 g for 10 min, after which 100 μL of the supernatant was transferred to a new, clear 96-well plate, and the absorbance at 490 nm measured. Media background absorbance (measured from a “no bacteria” control) was subtracted, the resulting values growth normalized by dividing by the final OD600, and the data plotted relative to a DMSO-treated positive control.

Sequence of QscR (G3XD77 entry or part of it): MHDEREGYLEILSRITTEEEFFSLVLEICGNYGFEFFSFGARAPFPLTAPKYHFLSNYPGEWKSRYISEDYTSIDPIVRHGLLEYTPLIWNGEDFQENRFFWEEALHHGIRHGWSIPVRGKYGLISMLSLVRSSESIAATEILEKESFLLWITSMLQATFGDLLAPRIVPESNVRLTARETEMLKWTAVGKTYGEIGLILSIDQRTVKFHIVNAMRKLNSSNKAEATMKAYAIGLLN

O=C(N[C@H]1CCOC1=O)C1CCCC1 [compound 3]
Activation [%] QscR (QscR): 4% | rhamnolipid production, single compound screens (P. aeruginosa (PAO1)): induced additional rhamnolipid and elastase B production
